Reference: patent US20050182040A1, “Benzamide derivatives” (priority 2002, published 2005)

Key:
Rho kinase = molecular target: T1, Rho kinase (Bos taurus, UniProt Q28021); assay: Assay of the inhibition of phosphorylation by Rho kinase; format: biochemical; settings: Rho kinase immobilized from bovine brain extract fraction on anti-Rho kinase antibody plate; 0.1 μM ATP ([γ-32P]ATP), histone (HF2A) substrate; room temperature, 4 hours
T1 construct: Rho kinase was selectively immobilized from the bovine brain extract fraction; from tissue; host or cells: bovine brain gray matter extract, captured on an anti-ROKII peptide antibody plate
T1 sequence (Q28021 whole entry): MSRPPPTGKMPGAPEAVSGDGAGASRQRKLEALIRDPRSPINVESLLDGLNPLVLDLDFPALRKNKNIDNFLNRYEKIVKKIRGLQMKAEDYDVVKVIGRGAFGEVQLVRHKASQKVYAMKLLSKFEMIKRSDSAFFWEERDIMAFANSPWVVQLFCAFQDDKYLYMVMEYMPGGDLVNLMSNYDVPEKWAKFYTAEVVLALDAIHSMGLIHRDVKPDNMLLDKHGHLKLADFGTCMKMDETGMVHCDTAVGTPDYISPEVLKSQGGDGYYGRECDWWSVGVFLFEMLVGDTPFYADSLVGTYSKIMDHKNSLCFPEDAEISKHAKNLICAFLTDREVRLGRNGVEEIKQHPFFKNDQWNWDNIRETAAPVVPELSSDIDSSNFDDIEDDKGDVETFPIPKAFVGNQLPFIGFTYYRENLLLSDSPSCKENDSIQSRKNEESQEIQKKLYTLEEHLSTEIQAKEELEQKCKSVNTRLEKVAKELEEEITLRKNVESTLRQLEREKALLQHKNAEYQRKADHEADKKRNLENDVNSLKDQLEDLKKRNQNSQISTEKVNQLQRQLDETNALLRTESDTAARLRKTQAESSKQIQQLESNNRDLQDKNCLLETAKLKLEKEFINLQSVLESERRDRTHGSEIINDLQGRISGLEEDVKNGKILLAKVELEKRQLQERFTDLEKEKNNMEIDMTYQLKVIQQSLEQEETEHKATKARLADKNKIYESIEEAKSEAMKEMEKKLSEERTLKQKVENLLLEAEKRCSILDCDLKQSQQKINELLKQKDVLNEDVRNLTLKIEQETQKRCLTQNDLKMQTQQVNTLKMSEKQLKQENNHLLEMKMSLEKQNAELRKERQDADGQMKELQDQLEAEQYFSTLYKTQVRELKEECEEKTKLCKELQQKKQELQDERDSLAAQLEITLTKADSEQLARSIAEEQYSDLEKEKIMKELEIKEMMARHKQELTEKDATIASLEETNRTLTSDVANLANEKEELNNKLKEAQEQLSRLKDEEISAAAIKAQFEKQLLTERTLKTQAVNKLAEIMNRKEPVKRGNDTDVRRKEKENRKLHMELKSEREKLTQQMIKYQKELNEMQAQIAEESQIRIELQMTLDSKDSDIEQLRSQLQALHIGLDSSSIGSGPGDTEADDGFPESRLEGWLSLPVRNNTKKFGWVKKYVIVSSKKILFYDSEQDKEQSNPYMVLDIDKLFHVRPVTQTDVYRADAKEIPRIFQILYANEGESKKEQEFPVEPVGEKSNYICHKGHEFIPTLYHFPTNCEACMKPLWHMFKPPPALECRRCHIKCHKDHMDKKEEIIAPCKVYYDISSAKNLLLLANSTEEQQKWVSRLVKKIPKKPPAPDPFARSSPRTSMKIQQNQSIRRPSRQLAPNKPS
Protocol: Assay of the inhibition of phosphorylation by Rho kinase
A bovine brain extract fraction was prepared as follows. That is, a piece of gray matter was minced from bovine brain and suspended in a buffer solution for immunoprecipitation (10 mM tris(hydroxymethyl)aminomethane (Tris) (pH 7.5), 1% Triton X-100, 0.5% NP-40, 150 mM NaCl, 20 mM sodium fluoride, 1 mM ethylenediaminetetraacetic acid (EDTA), 1 mM ethylene glycol bis(β-aminoethyl ether)-N,N,N′,N′-tetraacetic acid (EGTA) and 0.2 mM phenylmethylsulfonyl fluoride (PMSF)) in two volumes of the gray matter. The tissue was homogenized by the use of a Potter type homogenizer made of polytetrafluoroethylene. After the homogenate was centrifuged at 20,000 g for 15 minutes, the supernatant was collected and then subjected to ultracentrifugation at 100,000 g for 60 minutes. The resulting supernatant was used as a bovine brain extract fraction.
An anti-Rho kinase antibody immobilized plate was prepared as follows. That is, a secondary antibody (anti-goat IgG (Fc) antibody) was diluted 300-fold with phosphate-buffered saline (PBS) (1 μl antibody/300 μl PBS), and 100 μl of the resulting dilution was added to each well of a 96-well ELISA plate. After coating at room temperature for 2 hours, the supernatant was removed. Thereafter, 100 μl of PBS was added and then the supernatant was removed (this washing operation was carried out twice). After the washing, 100 μl of a blocking buffer solution (0.05% Tween 20 and 0.25% bovine serum albumin (fatty acid free)/PBS) was added, followed by blocking at room temperature for 1 hour. After the blocking, each well was washed twice with 100 μl of the blocking buffer solution, and 100 μl of a primary antibody (anti-ROKII (Rho kinase) peptide antibody) diluted 200-fold (0.5 μl (0.1 μg)/100 μl) with PBS was added, followed by coating at room temperature for 2 hours. After the coating, each well was washed once with 100 μl of the blocking buffer solution. In addition, 100 μl of the blocking buffer solution was added to obtain an anti-Rho kinase antibody immobilized plate.
Using the aforesaid plate, Rho kinase was selectively immobilized from the bovine brain extract fraction, and phosphorylation by Rho kinase was assayed. To each well of the antibody-immobilized plate was added 100 μl of a bovine brain extract solution prepared so as to have a concentration of 1.5 mg/ml, and the reactions were incubated at 4° C. for 1 hour to immobilize Rho kinase on the plate. After completion of the reaction, the supernatant was removed and each well was washed three times with 100 μl of the buffer solution for immunoprecipitation. In addition, each well was washed three times with 100 μl of buffer solution A (50 mM Tris (pH 7.5), 10 mM MgCl2 and 150 mM NaCl). To each well of the plate freed from the supernatant was added 40 μl of the aforesaid buffer solution for reaction (50 mM Tris-HCl (pH 7.5), 2 mM EDTA and 10 mM MgCl2). Further, adenosine 5′-triphosphate (ATP) buffer (0.1 μM ATP (containing 6 nM [v-^32P]ATP) and 10 μg histone (HF2A)) containing each compound was prepared, and 10 μl of this solution was added to each well of the plate to initiate the reaction. The reactions were carried out at room temperature for 4 hours. The reaction was terminated by the addition of a phosphoric acid solution of a final concentration of 75 mM and 50 μM ATP. After completion of the reaction, 50 μl of the reaction solutions were spotted onto a phosphocellulose filter for Beta Plate 1205 (Wallac) only. After completion of the spot, the filter was washed with 150 ml of a 75 mM phosphoric acid solution for 10 minutes. This washing operation was repeated three times. After completion of the washing, the filter was dried and then wrapped in a cellophane bag, and 10 ml of a liquid scintillation cocktail was added. The amount of energy (β-ray radioactivity count) trapped in the filter was measured with Beta Plate 1205. […]

Structure (SMILES)	melting point	IC50 (Rho kinase)
COc1cc(NCc2ccncc2)ccc1C(N)=O [Example 128, 2-Methoxy-4-[(pyridin-4-ylmethyl)amino]-benzamide]	180 to 183 °C	
COc1cc(N[C@H]2CC[C@H](N)CC2)c(Cl)cc1C(N)=O [Example 113, 4-[(trans-4-aminocyclohexyl)amino]-5-chloro-2-methoxybenzamide]		21.8 nM
NC(=O)c1cc(Br)c(N[C@H]2CC[C@H](N)CC2)cc1F [Example 163, 4-[trans-(4-aminocyclohexyl)-amino]-5-bromo-2-fluorobenzamide]		24.8 nM
COc1cc(N[C@H]2CC[C@H](N)CC2)c(F)cc1C(N)=O [Example 158, 4-[(trans-4-aminocyclo-hexyl)amino]-5-fluoro-2-methoxybenzamide]		28.4 nM
NC(=O)c1cc(Cl)c(N[C@H]2CC[C@H](N)CC2)cc1F [Example 141, 4-[trans-(4-aminocyclohexyl)-amino]-5-chloro-2-fluorobenzamide]		28.7 nM
NC(=O)c1cc(F)c(N[C@H]2CC[C@H](N)CC2)cc1F [Example 162, 4-[trans-(4-aminocyclohexyl)-amino]-2,5-difluorobenzamide]		26.4 nM
NC(=O)c1ccc(NC(=O)C2CCCN(Cc3ccccc3)C2)cc1 (centres unmarked) [Example 13, N-[4-(aminocarbonyl)phenyl]-1-benzylpiperidine-3-carboxamide]	211 to 212 °C	
COc1cc(NCc2ccccc2)ccc1C(N)=O [Example 85, 4-(benzylamino)-2-methoxybenzamide]	175 to 176 °C	
NC(=O)c1ccc(OC2CCN(Cc3ccccc3)CC2)cc1 [Example 25, 4-[(1-benzylpiperidin-4-yl)oxy]benzamide]	166 to 168 °C	
Cl.NC(=O)c1ccc(NC2CCNCC2)cc1	292 to 294 °C (dec.)	
COc1cc(NC2CCN(Cc3ccccc3)CC2)ccc1C(N)=O [Example 28, 4-[(1-benzylpiperidin-4-yl)amino]-2-methoxybenzamide]	155 to 157 °C	
NC(=O)c1ccc(NC2CCN(Cc3ccccc3)CC2)cc1 [Example 10, 4-[(1-benzylpiperidin-4-yl)amino]benzamide]	192 to 193 °C	2000 nM
COc1cc(O[C@H]2CC[C@H](N)CC2)c(Cl)cc1C(N)=O [Example 159, 4-[(trans-4-aminocyclohexyl)-oxy]-5-chloro-2-methoxybenzamide]		24.4 nM
